In PMC9885860 (Pharmacological research, 2021):
Several values for one entry are separate records, joined by “and”; a condition that tells them apart may be missing. Identical values can stand only once. Entries after “also recorded” stand apart in the source; their conditions may differ. Counter-ions that a name gives are not always drawn. Like-named read-outs stand apart in the source and are kept apart here.

Legend:
[1] = target: human α2A adrenoceptor fused to Renilla luciferase RLuc8 (α2AR-RLuc) (human) (UniProt P08913); experiment: FRET or BRET
α2R = target: T1, α2R (Ovis aries, UniProt A0ACI6PY47); experiment: Competitive inhibition of [3H]RX821002 binding in sheep cortex membranes; settings: read-out: KDB1 for α2R; vs [3H]RX821002, sheep cortex membranes
T1 sequence (A0ACI6PY47 1-467): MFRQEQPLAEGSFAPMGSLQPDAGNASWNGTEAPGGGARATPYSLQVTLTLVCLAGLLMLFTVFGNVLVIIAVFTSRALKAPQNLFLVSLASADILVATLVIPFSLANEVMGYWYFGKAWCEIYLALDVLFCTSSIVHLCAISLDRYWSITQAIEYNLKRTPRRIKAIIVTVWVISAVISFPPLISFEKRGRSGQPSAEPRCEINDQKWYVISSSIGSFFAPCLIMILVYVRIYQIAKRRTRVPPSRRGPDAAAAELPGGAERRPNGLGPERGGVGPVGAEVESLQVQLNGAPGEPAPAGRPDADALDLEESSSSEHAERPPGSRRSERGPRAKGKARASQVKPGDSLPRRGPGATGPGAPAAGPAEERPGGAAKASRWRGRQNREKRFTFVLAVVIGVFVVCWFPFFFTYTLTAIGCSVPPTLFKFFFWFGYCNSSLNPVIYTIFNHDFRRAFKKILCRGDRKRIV

α2AR-α2AR = target: T2, α2AR-α2AR (Homo sapiens, UniProt P08913); experiment: CODA-RET Gαi1 activation, α2AR-α2AR homomer; type: cell-based; settings: for Emax: Gαi1, Table 2
T2 sequence (P08913 1-465) 1: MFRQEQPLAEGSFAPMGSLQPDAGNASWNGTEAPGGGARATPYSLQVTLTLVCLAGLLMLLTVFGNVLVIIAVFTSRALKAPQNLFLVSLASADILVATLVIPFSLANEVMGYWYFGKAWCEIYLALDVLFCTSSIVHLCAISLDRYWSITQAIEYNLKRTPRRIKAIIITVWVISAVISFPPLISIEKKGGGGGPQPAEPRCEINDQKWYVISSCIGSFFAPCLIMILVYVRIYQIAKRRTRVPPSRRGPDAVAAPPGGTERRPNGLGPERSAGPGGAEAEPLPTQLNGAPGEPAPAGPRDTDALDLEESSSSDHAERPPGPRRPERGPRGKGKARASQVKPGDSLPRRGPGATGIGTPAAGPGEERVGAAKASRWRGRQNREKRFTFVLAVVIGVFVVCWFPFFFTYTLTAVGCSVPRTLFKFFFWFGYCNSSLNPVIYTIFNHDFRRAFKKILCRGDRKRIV
T2 sequence (P08913 1-465) 2: T2 sequence (P08913 1-465) 1

α2AR-D4.4R [2] = target: T3, α2AR-D4.4R (Homo sapiens, UniProt P08913+P21917); experiment: CODA-RET Gαi1 activation, α2AR-D4.4R heteromer; type: cell-based; settings: for Emax: Gαi1, Table 2
T3 sequence (P08913 1-465): T2 sequence (P08913 1-465) 1
T3 sequence (P21917 1-419): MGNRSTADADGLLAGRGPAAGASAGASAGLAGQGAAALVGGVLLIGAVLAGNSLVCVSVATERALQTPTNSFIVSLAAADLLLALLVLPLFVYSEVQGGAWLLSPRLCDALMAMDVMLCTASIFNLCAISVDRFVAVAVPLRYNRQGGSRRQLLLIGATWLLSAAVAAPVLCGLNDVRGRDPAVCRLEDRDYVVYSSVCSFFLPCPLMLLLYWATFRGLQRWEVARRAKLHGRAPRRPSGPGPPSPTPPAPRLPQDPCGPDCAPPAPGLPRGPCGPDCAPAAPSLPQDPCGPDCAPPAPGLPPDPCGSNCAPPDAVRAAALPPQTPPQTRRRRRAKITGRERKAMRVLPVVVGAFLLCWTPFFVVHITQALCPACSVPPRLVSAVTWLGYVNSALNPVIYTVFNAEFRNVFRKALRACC

α2AR-D4.7R [3] = target: α2AR-D4.7R (Homo sapiens, UniProt P08913+P21917); experiment: CODA-RET Gαi1 activation, α2AR-D4.7R heteromer; type: cell-based; settings: for Emax: Gαi1, Table 2
Sequence of α2AR-D4.7R (Homo sapiens, UniProt P08913+P21917) (P62873 2-340, one chain of several): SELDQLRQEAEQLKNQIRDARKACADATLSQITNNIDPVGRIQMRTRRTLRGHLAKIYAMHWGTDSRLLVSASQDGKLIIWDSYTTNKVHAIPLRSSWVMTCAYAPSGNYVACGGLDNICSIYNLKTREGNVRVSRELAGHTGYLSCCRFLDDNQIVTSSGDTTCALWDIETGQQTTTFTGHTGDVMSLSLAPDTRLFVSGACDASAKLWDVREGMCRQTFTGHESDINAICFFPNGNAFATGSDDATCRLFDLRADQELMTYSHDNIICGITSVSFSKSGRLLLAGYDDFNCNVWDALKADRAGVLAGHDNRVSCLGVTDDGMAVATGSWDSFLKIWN
Sequence of α2AR-D4.7R (Homo sapiens, UniProt P08913+P21917) (P63096 2-354, one chain of several, further chain): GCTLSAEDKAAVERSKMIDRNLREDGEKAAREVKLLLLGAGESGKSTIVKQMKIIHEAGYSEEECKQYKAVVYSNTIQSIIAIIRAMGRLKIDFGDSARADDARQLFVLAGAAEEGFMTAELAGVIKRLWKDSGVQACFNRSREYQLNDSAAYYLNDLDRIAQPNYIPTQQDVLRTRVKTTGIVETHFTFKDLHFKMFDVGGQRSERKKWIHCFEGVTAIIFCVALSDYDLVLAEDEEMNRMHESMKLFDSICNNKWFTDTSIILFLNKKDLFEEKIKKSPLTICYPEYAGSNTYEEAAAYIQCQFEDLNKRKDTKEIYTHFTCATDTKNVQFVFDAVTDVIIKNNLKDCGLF
Sequence of α2AR-D4.7R (Homo sapiens, UniProt P08913+P21917) (P59768 2-68, one chain of several, further chain): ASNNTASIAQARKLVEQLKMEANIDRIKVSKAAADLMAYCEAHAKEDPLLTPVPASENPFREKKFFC

D4.4R [4] = target: T4, D4.4R (Homo sapiens, UniProt P21917); type: binding
T4 sequence (P21917 1-419): T3 sequence (P21917 1-419)

α2AR-D4.4R [5] = target: T3, α2AR-D4.4R; type: binding; settings: 12°C; control or in presence of A-412997 (30 nM)
D4.4R-D4.4R = target: T5, D4.4R-D4.4R (Homo sapiens, UniProt P21917); experiment: CODA-RET Gαi1 activation, D4.4R-D4.4R homomer; type: cell-based; settings: A-412997 1 μM; shift to the right of DA curve
T5 sequence (P21917 1-419) 1: T3 sequence (P21917 1-419)
T5 sequence (P21917 1-419) 2: T3 sequence (P21917 1-419)

D4.4R [6] = target: T4, D4.4R; experiment: Receptor-G protein BRET, D4.4R fused to RLuc with Gαi1 or Gαo1; type: cell-based
D4.7R = target: T6, D4.7R (Homo sapiens, UniProt P21917); experiment: Receptor-G protein BRET, D4.7R fused to RLuc with Gαi1 or Gαo1; type: cell-based
T6 sequence (P21917 1-264 limits assumed): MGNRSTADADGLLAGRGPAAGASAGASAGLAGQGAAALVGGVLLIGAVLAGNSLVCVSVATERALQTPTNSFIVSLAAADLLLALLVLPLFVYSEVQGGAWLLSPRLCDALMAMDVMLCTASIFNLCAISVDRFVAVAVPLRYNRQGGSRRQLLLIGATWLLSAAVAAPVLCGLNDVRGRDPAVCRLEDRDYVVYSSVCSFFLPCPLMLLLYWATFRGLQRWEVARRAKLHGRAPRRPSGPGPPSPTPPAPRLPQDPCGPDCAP
T6 sequence (P21917 297-419 limits assumed): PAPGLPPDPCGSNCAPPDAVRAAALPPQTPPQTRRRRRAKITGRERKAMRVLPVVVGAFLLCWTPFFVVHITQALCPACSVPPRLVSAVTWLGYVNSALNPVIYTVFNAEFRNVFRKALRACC

α2AR-D4.4R [7] = target: T3, α2AR-D4.4R; experiment: CODA-RET Gαo1 activation, α2AR-D4.4R heteromer; type: cell-based; settings: Fig. 4D
α2AR-D4.4R cells [8] = target: T7, α2AR-D4.4R cells (Homo sapiens, UniProt P08913+P21917); experiment: Forskolin-induced cAMP accumulation, α2AR-D4.4R cells; type: cell-based; settings: agonists 100 nM, forskolin 0.5 μM
T7 sequence (P08913 1-465): T2 sequence (P08913 1-465) 1
T7 sequence (P21917 1-419): T3 sequence (P21917 1-419)

α2AR-D4.4R cells [9] = target: T7, α2AR-D4.4R cells; experiment: ERK1/2 phosphorylation, α2AR-D4.4R cells; type: cell-based; settings: agonists 300 nM, 5 min
[10] = tested on: cortical slices from hD4.7R mice; experiment: ERK1/2 phosphorylation in cortical brain slices from knock-in hD4.7R mice; set-up: species or system mouse; settings: agonists 1 μM
D4.7R-D4.7R = target: T8, D4.7R-D4.7R (Homo sapiens, UniProt P21917); settings: A-412997 1 μM; shift to the right of DA curve
T8 sequence (P21917 1-419): T3 sequence (P21917 1-419)

human α2AR = target: T9, human α2AR (Homo sapiens, UniProt P08913); experiment: [3H]RX821002 saturation binding in HEK-293T cells transfected with human α2AR; settings: read-out: KDA1, n=3
T9 sequence (P08913 1-465): T2 sequence (P08913 1-465) 1

α2AR-D4.7R [11] = type: binding, human; settings: 12°C; control or in presence of A-412997 (30 nM)
α2AR-D4.7R [12] = experiment: CODA-RET Gαo1 activation, α2AR-D4.7R heteromer; type: cell-based, human; settings: Fig. 4E
α2AR (with D4.4R) = target: T10, α2AR (with D4.4R) (Homo sapiens, UniProt P08913); experiment: BRET α2AR-RLuc and Gαo1-mVenus, cells co-transfected with unfused D4.4R; type: cell-based; settings: in the presence of D4.4R
T10 sequence (P08913 1-465): T2 sequence (P08913 1-465) 1

α2AR (with D4.7R) = target: T11, α2AR (with D4.7R) (Homo sapiens, UniProt P08913); experiment: BRET α2AR-RLuc and Gαo1-mVenus, cells co-transfected with unfused D4.7R; type: cell-based; settings: in the presence of D4.7R
T11 sequence (P08913 1-465): T2 sequence (P08913 1-465) 1

[13] = cells pretreated with antagonist

## human dopamine D4.7 receptor fused to YFP (D4.7R-YFP)
[1]
  BRET50: 60

## Cc1cccc(C(=O)NCN2CCN(c3ccccc3C#N)CC2)c1 [PD168077]
α2R
  Kd: 80 ± 10 nM

## CCCN(CCC)CCc1cccc2c1CC(=O)N2 [Ropinirole]
α2AR-α2AR
  Emax: ineffective
α2AR-D4.4R [2]
  EC50: 400 ± 200 nM

## CCCN[C@H]1CCc2nc(N)sc2C1 [Pramipexole, Pramipexole dihydrochloride]
α2AR-D4.4R [2]
  Emax: 28±3 % of NE
α2AR-D4.7R [3]
  Emax: 48±5 % of NE

## Cc1cccc(NC(=O)CN2CCC(c3ccccn3)CC2)c1.Cl.Cl [A-412997, A-412997 dihydrochloride]
α2R
  Kd: 1400 nM
D4.4R [4]; read-out: KDB1, vs [3H]YM-09151-2, HEK-293T co-expressing α2AR and D4.4R, n=3
  Kd: 1.1 ± 0.1 nM
α2AR-D4.4R [5]
  koff1 of [3H]RX821002: 0.25±0.07 ^* min^−1
  koff2 of [3H]RX821002: 0.036±0.007 ^* min^−1
α2AR-D4.7R [3]
  Emax: 0 % of NE
D4.4R-D4.4R
  effect on DA-mediated Gi protein activation: competitive antagonist of DA
D4.4R [6]; Gαi1-mVenus
  Gαi1 activation: did not promote
D4.4R [6]; Gαo1-mVenus
  Gαo1 activation: did promote significant Gαo1 activation
D4.7R; Gαi1-mVenus
  Gαi1 activation: did not promote
D4.7R; Gαo1-mVenus
  Gαo1 activation: did promote significant Gαo1 activation
α2AR-D4.4R [7]
  Gαo1 activation: promoted Gαo1 activation
α2AR-D4.4R cells [8]
  inhibition of forskolin-induced cAMP accumulation: more effective than dexmedetomidine
α2AR-D4.4R cells [9]
  ERK1/2 phosphorylation: more effective in α2AR-D4.4R cells than in α2AR-D4.7R cells
[10]
  MAPK activation (ERK1/2 phosphorylation): significantly weaker than of dexmedetomidine
D4.7R-D4.7R
  effect on DA-mediated Gi protein activation: competitive antagonist of DA

## CCCN(CCc1cccs1)[C@H]1CCc2c(O)cccc2C1 [Rotigotine, Rotigotine hydrochloride]
α2AR-α2AR
  Emax: 0 % of NE
α2AR-α2AR; listed as rotigotine
  Emax: ineffective; also recorded: did not produce any response
α2AR-D4.4R [2]
  EC50: 7 ± 5 nM
  Emax: 13±2 % of NE
α2AR-D4.4R [2]; listed as rotigotine
  Emax: small Gαi1 protein activation
α2AR-D4.7R [3]
  Emax: did not produce any response and 0 % of NE

## Clc1cccc(Cl)c1N=C1NCCN1 [Clonidine, Clonidine hydrochloride]
α2AR-α2AR
  Emax: 18±2 % of NE
α2AR-D4.4R [2]
  Emax: 0 % of NE
α2AR-D4.4R [2]; listed as clonidine
  Emax: complete lack of efficacy

## N=C(N)NC(=O)Cc1c(Cl)cccc1Cl [Guanfacine, Guanfacine hydrochloride]
α2AR-α2AR
  Emax: 14±2 % of NE
α2AR-D4.4R [2]
  Emax: 0 % of NE
α2AR-D4.4R [2]; listed as guanfacine
  Emax: complete lack of efficacy
α2AR-D4.7R [3]
  Emax: 20±3 % of NE

## CC1c2ccccc2CN1CC1=NCCN1.O=C(O)/C=C\C(=O)O (stereo not shown) [BRL44408, BRL 44408 maleate]
α2AR-α2AR; [13]
  antagonist effect on NE- and DA-induced Gαi1 activation: significantly decreased the potency of NE and DA
α2AR-D4.4R [2]; [13]
  antagonist effect on NE- and DA-induced Gαi1 activation: significantly decreased the potency of NE and DA
α2AR-D4.7R [3]; [13]
  antagonist effect on NE- and DA-induced Gαi1 activation: significantly decreased the potency of NE and DA

## COC1(C2=NCCN2)COc2ccccc2O1.Cl (stereo not shown) [RX821002, RX 821002 hydrochloride]
D4.4R [4]; any concentration up to 10 μM
  displacement of [3H]YM-09151-2: did not displace

## COC1(C2=NCCN2)COc2ccccc2O1 (stereo not shown) [[^3H]RX821002]
Human α2AR
  Kd: 0.62 ± 0.05 nM
α2AR-D4.4R [5]
  RT1 (residence time) of [3H]RX821002: 7 min
  RT2 (residence time) of [3H]RX821002: 50 min
  koff1 of [3H]RX821002: 0.14 ± 0.03 min⁻¹
  koff2 of [3H]RX821002: 0.020 ± 0.004 min⁻¹
α2AR-D4.7R [11]
  RT (residence time) of [3H]RX821002: 17 min
  koff of [3H]RX821002: 0.000967 ± 3.3e-05 s⁻¹

## Cc1cccc([C@H](C)c2cnc[nH]2)c1C [Dexmedetomidine, Dexmedetomidine hydrochloride]
D4.4R [4]
  Kd: 2000 to 6000 nM
α2AR-α2AR
  Emax: 26±3 % of NE
α2AR-D4.7R [12]
  Gαo1 activation: able to activate Gαo1
α2AR (with D4.4R)
  α2AR-mediated Gαo1 activation: promotes a significant α2AR-mediated Gαo1 activation
α2AR (with D4.7R)
  α2AR-mediated Gαo1 activation: promotes a significant α2AR-mediated Gαo1 activation

## NC[C@H](O)c1ccc(O)c(O)c1 [NE, norepinephrine]
α2AR-α2AR
  Emax: 100±3 % of NE
α2AR-D4.7R [3]; Gαi1 CODA-RET
  increase in NE potency on α2AR-D4.7R compared with α2AR-D4.4R: five-fold
